The record followed here is patent US20110230476A1, “PI3 KINASE INHIBITORS AND USES THEREOF” (AVILA THERAPEUTICS, INC., priority 2009, published 2011).

Assay [1] addresses T1, PI3Kα (p110α/p85α) (Homo sapiens, UniProt P42336).
T1 construct: purchased BPS Bioscience (San Diego, Calif.) or Millipore (Billerica, Mass.)
Briefly: HTRF assay, potency against active PI3Kα. It counts as biochemical. Particulars: HTRF; [ATP]=50 μM, [di-C8-PIP2]=10 μM; 30 min pre-incubation; read-out: PI3Kα Inhibition. An outline of the steps:
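Active p110/p85α lipid kinase reactions were started with ATP and run 30-60 minutes at 25 °C, then stopped and developed with HTRF detection mix. HTRF ratio converted to % inhibition against ±enzyme controls; IC50 from log[inhibitor] vs response, variable slope.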

Assay [2] concerns PI3K. Nature of the assay: PI3K HCT116 cellular assay (Western blot). The conditions noted are these: Homo sapiens, HCT-116, HCT116 colon cancer cells, 1 hour incubation, read-out: PI3K Inhibition. The class given is cell-based. As to the method:
PI3K HCT116 Cellular Assay
Selected compounds were assayed in HCT116 colon cancer cells. […] Cells were then washed with PBS, lysed and the protein lysates were then recovered and analyzed by Western blot.

Assay [3] has as its target T2, PI3Kγ (p120γ) (Homo sapiens, UniProt P48736).
T2 construct: purchased BPS Bioscience (San Diego, Calif.) or Millipore (Billerica, Mass.)
Nature of the assay: HTRF assay, potency against active PI3Kγ. The conditions noted are these: [ATP]=50 μM, [di-C8-PIP2]=10 μM, 30 min pre-incubation, read-out: PI3Kγ Inhibition. It counts as biochemical. From the text:
Homogeneous Time Resolved Fluorescence (HTRF) Assay Protocol for Potency Assessment Against the Active Forms of PI3Kα, PI3Kβ, and PI3Kγ
The protocol below describes an end-point, competition-binding HTRF assay used to measure inherent potency of test compounds against active PI3Kα (p110α/p85α), PI3Kβ (p110β/p85α), and PI3Kγ (p120γ) enzymes. The mechanics of the assay platform are best described by the vendor (Millipore, Billerica, Mass.) on their website at the following URL: www.millipore.com/coa/tech1/74jt4z.
Briefly, Stop solution (Stop A, #33-007 and Stop B, #33-009; 3:1 ratio) and Detection Mix (from DMC, #33-015 with DMA, #33-011 and DMB, #33-013; 18:1:1 ratio) were prepared as recommended by the manufacturer about 2 hrs prior to use. Additionally, 1× reaction buffer (from 4× buffer stock# 33-003), 1.4× stocks of PI3Kα, PI3Kβ, and PI3Kγ enzymes from BPS Bioscience (San Diego, Calif.) or Millipore (Billerica, Mass.) with di-C8-PIP2 lipid substrate (#33-005), and a 4×ATP solution (#A7699 Sigma/Aldrich; St. Louis, Mo.) were prepared in 1× reaction buffer. 15 μL of PI3K enzymes and lipid substrate mix were pre-incubated in a Corning (#3573) 384-well, black, non-treated microtiter plate (Corning, N.Y.) for 30 min at 25° C. with a 0.5 μL volume of 50% DMSO and serially diluted compounds prepared in 50% DMSO. Lipid kinase reactions were started with the addition of 5 μL of ATP solution, mixed for 15 sec on a rotary plate shaker and incubated for 30-60 minutes at 25° C. Next, reactions were stopped with a 5 μL addition of Stop solution immediately followed by a 5 μL volume of Detection Mix. Stopped reactions were equilibrated for 1 and 18 hrs at room temperature and read in a Synergy^4 plate reader from BioTek (Winooski, Vt.) at λex330-80/λem620-35 and λem665-7.5. At the conclusion of each assay, the HTRF ratio from fluorescence emission values for each well was calculated and % Inhibition determined from averaged controls wells (+/−PI3K enzyme). % Inhibition values for each compound were then plotted against inhibitor concentration to estimate IC50 from log [Inhibitor] vs Response, Variable Slope model in GraphPad Prism from GraphPad Software (San Diego, Calif.).
[Reagent] used in optimized protocol: • [p110α/p85α]=0.5-1.5 nM, [ATP]=50 μM, [di-C8—PIP2]=10 μM • [p110β/p85α]=0.75 nM, [ATP]=50 μM, [di-C8—PIP2]=10 μM • [p120γ]=2-2.5 nM, [ATP]=50 μM, [di-C8—PIP2]=10 μM • (ATP KMapp for both enzymes was estimated to be 40-70 μM)

pEC50, pIC50: −log10 of the molar value. Some results are limits rather than exact numbers.

T2 sequence (P48736 whole entry): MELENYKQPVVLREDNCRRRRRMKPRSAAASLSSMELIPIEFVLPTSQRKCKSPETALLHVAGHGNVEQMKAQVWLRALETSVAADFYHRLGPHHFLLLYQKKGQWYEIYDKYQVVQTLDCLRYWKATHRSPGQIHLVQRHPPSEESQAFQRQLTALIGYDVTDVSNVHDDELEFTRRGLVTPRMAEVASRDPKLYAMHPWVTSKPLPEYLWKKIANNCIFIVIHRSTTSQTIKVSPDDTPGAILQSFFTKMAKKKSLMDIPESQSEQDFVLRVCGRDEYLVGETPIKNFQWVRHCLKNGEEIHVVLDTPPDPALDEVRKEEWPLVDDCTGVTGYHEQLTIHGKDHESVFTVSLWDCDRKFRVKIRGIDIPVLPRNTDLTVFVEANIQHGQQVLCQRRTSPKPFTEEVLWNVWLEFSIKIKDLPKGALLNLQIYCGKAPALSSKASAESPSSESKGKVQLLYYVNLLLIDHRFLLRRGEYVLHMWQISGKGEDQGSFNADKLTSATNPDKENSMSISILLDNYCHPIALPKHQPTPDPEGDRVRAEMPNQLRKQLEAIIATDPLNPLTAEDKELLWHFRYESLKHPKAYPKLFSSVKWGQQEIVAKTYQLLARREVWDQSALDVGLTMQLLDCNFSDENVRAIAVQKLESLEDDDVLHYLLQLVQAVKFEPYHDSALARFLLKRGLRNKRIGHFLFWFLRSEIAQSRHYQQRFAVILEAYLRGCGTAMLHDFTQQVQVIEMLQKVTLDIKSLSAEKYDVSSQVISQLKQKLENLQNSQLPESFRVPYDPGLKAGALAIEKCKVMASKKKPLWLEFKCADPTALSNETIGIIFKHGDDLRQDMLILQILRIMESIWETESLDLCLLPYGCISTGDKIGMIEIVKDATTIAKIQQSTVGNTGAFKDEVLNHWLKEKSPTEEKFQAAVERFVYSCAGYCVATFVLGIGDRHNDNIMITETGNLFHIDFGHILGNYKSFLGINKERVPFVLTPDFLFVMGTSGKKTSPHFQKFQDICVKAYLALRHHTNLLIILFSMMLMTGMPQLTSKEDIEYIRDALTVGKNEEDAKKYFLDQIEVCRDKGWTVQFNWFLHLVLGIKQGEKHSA
T1 sequence (P42336 whole entry): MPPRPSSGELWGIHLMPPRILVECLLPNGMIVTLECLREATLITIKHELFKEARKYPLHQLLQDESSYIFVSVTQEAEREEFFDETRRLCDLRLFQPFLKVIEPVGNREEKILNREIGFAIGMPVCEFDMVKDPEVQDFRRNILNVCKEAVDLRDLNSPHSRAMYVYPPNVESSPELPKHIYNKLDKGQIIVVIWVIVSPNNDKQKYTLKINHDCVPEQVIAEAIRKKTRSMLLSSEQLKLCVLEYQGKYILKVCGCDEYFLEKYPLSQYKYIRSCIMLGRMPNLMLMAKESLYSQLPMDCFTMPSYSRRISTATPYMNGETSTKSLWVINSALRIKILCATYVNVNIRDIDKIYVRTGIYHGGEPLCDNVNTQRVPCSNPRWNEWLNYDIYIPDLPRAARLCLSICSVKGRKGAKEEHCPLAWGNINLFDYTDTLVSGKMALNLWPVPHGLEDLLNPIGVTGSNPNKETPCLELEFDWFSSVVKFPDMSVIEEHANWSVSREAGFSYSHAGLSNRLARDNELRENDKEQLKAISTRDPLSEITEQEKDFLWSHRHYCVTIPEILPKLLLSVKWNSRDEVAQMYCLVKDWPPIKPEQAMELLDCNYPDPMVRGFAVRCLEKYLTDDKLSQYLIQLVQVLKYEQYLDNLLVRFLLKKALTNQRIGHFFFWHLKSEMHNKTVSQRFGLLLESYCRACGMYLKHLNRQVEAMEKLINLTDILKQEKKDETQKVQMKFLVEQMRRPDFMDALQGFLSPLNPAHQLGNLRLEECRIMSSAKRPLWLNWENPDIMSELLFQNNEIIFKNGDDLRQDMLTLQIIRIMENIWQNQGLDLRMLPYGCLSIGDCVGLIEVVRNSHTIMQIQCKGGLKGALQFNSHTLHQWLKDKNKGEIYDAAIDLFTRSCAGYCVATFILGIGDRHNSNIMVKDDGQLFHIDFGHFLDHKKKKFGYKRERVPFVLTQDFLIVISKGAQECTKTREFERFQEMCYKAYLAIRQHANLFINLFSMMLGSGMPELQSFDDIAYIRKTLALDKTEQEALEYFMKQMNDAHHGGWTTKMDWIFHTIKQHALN
T1 sequence (P27986 whole entry partner): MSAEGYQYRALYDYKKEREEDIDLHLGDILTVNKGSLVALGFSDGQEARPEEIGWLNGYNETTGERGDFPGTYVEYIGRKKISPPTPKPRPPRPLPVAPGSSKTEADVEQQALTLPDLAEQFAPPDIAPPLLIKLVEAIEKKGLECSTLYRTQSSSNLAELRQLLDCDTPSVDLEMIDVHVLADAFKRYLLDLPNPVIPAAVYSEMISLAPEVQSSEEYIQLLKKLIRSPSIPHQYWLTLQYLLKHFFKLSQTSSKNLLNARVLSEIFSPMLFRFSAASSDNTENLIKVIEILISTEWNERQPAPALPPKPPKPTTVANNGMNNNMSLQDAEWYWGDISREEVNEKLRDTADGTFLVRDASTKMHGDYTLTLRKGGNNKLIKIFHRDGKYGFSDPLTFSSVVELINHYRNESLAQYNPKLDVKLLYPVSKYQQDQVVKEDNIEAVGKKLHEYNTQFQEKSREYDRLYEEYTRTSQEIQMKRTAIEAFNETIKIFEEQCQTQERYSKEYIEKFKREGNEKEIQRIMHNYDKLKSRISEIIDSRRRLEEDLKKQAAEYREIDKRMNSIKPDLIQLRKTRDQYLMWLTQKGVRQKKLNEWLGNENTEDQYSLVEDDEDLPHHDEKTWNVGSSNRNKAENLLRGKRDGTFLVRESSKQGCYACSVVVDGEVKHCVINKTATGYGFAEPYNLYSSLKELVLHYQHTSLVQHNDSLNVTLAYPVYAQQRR

In the case of `C/C=C/C(=O)CCC(=O)NCCS(=O)(=O)N1CCN(Cc2cc3nc(-c4cccc(O)c4)nc(N4CCOCC4)c3s2)CC1` [II-a-26, (E)-N-(2-(4-((2-(3-hydroxyphenyl)-4-morpholinothieno[3,2-d]pyrimidin-6-yl)methyl)piperazin-1-ylsulfonyl)ethyl)-4-oxohept-5-enamide], the pIC50 was 7.00 to 8.00 in assay [1] and 6.00 to 7.00 in assay [3]. For the same compound, in assay [2], the pEC50 is 7.00 to 7.70.

Consider `O=C1NC(=O)/C(=C/c2ccc3nccc(-c4ccncc4)c3c2)S1` [GSK-615, reference compound], for which, in assay [2], the pEC50 is above 7.70.

With `C=CC(=O)NCCS(=O)(=O)N1CCN(Cc2cc3nc(-c4cccc(O)c4)nc(N4CCOCC4)c3s2)CC1` [II-a-25, N-(2-(4-((2-(3-hydroxyphenyl)-4-morpholinothieno[3,2-d]pyrimidin-6-yl)methyl)piperazin-1-ylsulfonyl)ethyl)acrylamide], the pIC50 in assay [1] is 7.00 to 8.00; in assay [3], 6.00 to 7.00. Moreover, in assay [2], the pEC50 was 7.00 to 7.70.

`C=CC(=O)NC1CCC(C(=O)N(C)Cc2cc3nc(-c4cccc(O)c4)nc(N4CCOCC4)c3s2)CC1` (racemic) [II-a-35, (±)-4-acrylamido-N-((2-(3-hydroxyphenyl)-4-morpholinothieno[3,2-d]pyrimidin-6-yl)methyl)-N-methylcyclohexanecarboxamide]: the pIC50 in assay [1] and in assay [3] was 6.00 to 7.00 in each case. Also, in assay [2], the pEC50 was 6.30 to 7.00.

Regarding `C=CC(=O)NCC(=O)N1CCN(Cc2cc3nc(-c4cccc5[nH]ncc45)nc(N4CCOCC4)c3s2)CC1` [II-a-6, N-(2-(4-((2-(1H-indazol-4-yl)-4-morpholinothieno[3,2-d]pyrimidin-6-yl)methyl)piperazin-1-yl)-2-oxoethyl)acrylamide], the values for the pIC50 in assay [1] and in assay [3] were 6.00 to 7.00 and below 6.00, respectively. Further, the pEC50 in assay [2] was 5.30 to 5.70.

For `C=C(C)C(=O)CCCC(=O)N1CCN(c2ccnc3ccc(/C=C4\SC(Nc5c(Cl)cccc5Cl)=NC4=O)cc23)CC1` [V-3, (Z)-1-(4-(6-((2-(2,6-dichlorophenylamino)-4-oxothiazol-5(4H)-ylidene)methyl)quinolin-4-yl)piperazin-1-yl)-6-methylhept-6-ene-1,5-dione], the pIC50 in assay [1] was 6.00 to 7.00; in assay [3], below 6.00. In assay [2], the pEC50 was 5.70 to 6.30.

With `CC(C)=CC(=O)CCC(=O)NCCS(=O)(=O)N1CCN(Cc2cc3nc(-c4cccc(O)c4)nc(N4CCOCC4)c3s2)CC1` [II-a-28, N-(2-(4-((2-(3-hydroxyphenyl)-4-morpholinothieno[3,2-d]pyrimidin-6-yl)methyl)piperazin-1-ylsulfonyl)ethyl)-6-methyl-4-oxohept-5-enamide], the pIC50 in assay [1] and in assay [3] was 6.00 to 7.00 in each case. The pEC50 in assay [2] is 7.00 to 7.70.

As to `C=CC(=O)NCC(=O)N1CCN(Cc2cc3nc(-c4cccc(O)c4)nc(N4CCOCC4)c3s2)CC1` [II-a-38, N-(2-(4-((2-(3-hydroxyphenyl)-4-morpholinothieno[3,2-d]pyrimidin-6-yl)methyl)piperazin-1-yl)-2-oxoethyl)acrylamide], the pIC50 in assay [1] was 7.00 to 8.00; in assay [3], below 6.00.

Regarding `C/C=C/C(=O)CCC(=O)N1CCN(CC#Cc2cc3nc(-c4cccc(O)c4)nc(N4CCOCC4)c3s2)CC1` [II-a-48, (E)-1-(4-(3-(2-(3-hydroxyphenyl)-4-morpholinothieno[3,2-d]pyrimidin-6-yl)prop-2-ynyl)piperazin-1-yl) hept-5-ene-1,4-dione], the pIC50 was above 8.00 in assay [1] and below 6.00 in assay [3]. Further, the pEC50 in assay [2] is 7.00 to 7.70.

`C/C=C/C(=O)CCC(=O)NCCS(=O)(=O)N1CCN(Cc2cc3nc(-c4cccc5[nH]ncc45)nc(N4CCOCC4)c3s2)CC1` [II-a-23, (E)-N-(2-(4-((2-(1H-indazol-4-yl)-4-morpholinothieno[3,2-d]pyrimidin-6-yl)methyl)piperazin-1-ylsulfonyl)ethyl)-4-oxohept-5-enamide]: the pIC50 in assay [1] was 6.00 to 7.00; in assay [3] it was below 6.00.
